According to US5614370A, “Assay to identify human C5a antagonists and agonists” (Merck & Co., Inc., priority 1994, dated 1997):

System: human neutrophil membranes
Test: Inhibition of C5a stimulated GTPase activity
Assay type: biochemical
Experimental: FIG. 7A and 7B. […] These concentrations of the stimulating agents released 22% and 19% of the total cellular MPO, respectively.
The method of Kupper et al. (Kupper, R. W., Dewald, B., Jakobs, K. H., Baggiolini, M. and Gierschik, P. (1992) Biochem. J. 282, 429-434) was adapted for use in microtiter plates. Neutrophil membranes were suspended in 50 mM triethanolamine-HCl, 5 mM MES, pH 7.3, containing 1 mM EDTA, 5 mM MgCl2, 143 mM NaCl, 0.16 % BSA, 1 mM ouabain, 1 mM AMP-PNP, 0.5 mM ATP, 2.5 U/mL creatine phosphokinase,. 10 mM creatine phosphate, 0.1 mM PMSF and 10 ng/mL each of leupeptin, aprotinin and chymostatin. 50 μL of membranes containing 1-5 μg protein were added to 50 μL of the same buffer containing the test agent and 0.25 μM [γ-^32 P]-GTP (2,000 cpm/pmol) in the wells of a U-shaped microtiter plate. After incubation for 15-30 rain at 29° C., 100 μL of a 10% (w/v) charcoal suspension in 100 mM H3 PO4 was added and plates were centrifuged at 2000 rpm for 5 min. 100 μL of the supernatant was transferred to an Optiplate microtiter plate and 100 μL of Microscint-40 scintillation cocktail was added. Plates were counted in a Packard TopCount microtiter plate counter.

Question: How did the “inhibition of C5a stimulated G protein activation in words” value turn out when CN[C@@H](Cc1ccccc1)C(=O)N[C@@H](CCCCN)C(=O)N1CCC[C@H]1C(=O)N[C@H](CC1CCCCC1)C(=O)N[C@@H](Cc1c[nH]c2ccccc12)C(=O)N[C@H](CCCNC(=N)N)C(=O)O [C089] was run?
Answer: The value was “inhibits C5a stimulated degranulation and G protein activation”.

Question: What about the IC50 (FIG. 7B, 3 nM C5a) of the same compound?
Answer: The IC50 was 3 µM.
